US4889634A, “Dialysate solution containing hydroxypropyl-beta-cyclodextrin and method of using same” (priority 1988, dated 1989)

Experiments:
[1] = system: rats [Crl:CD(SD) BR strain]; experiment: 14-day intravenous toxicity study in rats; format: in vivo, rat; details: rat, in vivo, iv, 200 mg/kg
Description: (§1) As part of the toxicological evaluation of HPBCD, control groups of animals were dosed with HPBCD alone.
Two groups (5/sex/group) of rats [Crl:CD(SD) BR strain] were used for this study. Control rats were given 200 mg of salt per kilogram of body weight intravenously administered in a saline control solution comprising 20% salt by weight in water. The saline control was administered every second day for 14 days (i.e. seven injections). The treated rats were given 200 mg of HPBCD per kilogram of body weight intravenously administered (200 mg/kg i.v. HPBCD) via a HPBCD solution containing 20% HPBCD by weight in water on the same injection schedule. […] At the end of the study the animals were necropsied, gross pathology was observed, histopathological samples were prepared and blood was drawn for clinical laboratory measurements.

[2] = system: normal rats; experiment: relative nephrotoxicity of HPBCD and BCD, intraperitoneal; format: in vivo, rat; details: for Mortality (died/total): BCD 0.75% w/v, HPBCD 1.5 and 3% w/v, 15 ml/100 g i.p.
Description: A first study was conducted to determine the relative nephrotoxicity of HPBCD and BCD. A control group using phosphate buffer solution was also included in the study.
Three groups of normal rats were utilized in this study. […] Group I rats were given the vehicle solution of phosphate buffer saline (PBS). Group II rats were subdivided into three sub-groups. The first sub-group received a solution having a concentration of 1.5% HPBCD, the second sub-group received a solution having a concentration of 3% HPBCD while the third sub-group received a solution having a concentration of 6% HPBCD. Group III rats were given a solution having a concentration of 0.75% BCD.
Animals from each group were sacrificed at 24 and 72 hours after injection of the peritoneal solution. The animals were sacrificed under general anesthesia and exsanguinated from the abdominal aorta. Plasma was separated and blood urea nitrogen and creatinine was measured and used as an index of renal toxicity of the solutions.

[3] = system: Cynomolgus monkeys; details: cynomolgus monkey, in vivo
Description: as §1
Two groups (1/sex/group) of Cynomolgus monkeys were used for this study. Control monkeys were given 200 mg of salt per kilogram of body weight intravenously administered as a saline control solution of 20% by weight in water. The saline control was administered every second day for 14 days (i.e. 7 doses). The treated monkeys were given 200 mg/kg i.v. HPBCD on the same injection schedule. […] At the end of the study the animals were necropsied, gross pathology was observed, histopathology samples were prepared and blood was drawn for clinical laboratory measurements.

[4] = 1 day, BCD 0.75%, HPBCD 1.5 and 3%
[5] = 3 day, BCD 0.75%, HPBCD 1.5 and 3%

In the case of hydroxypropyl-beta-cyclodextrin [HPBCD], the Hemoglobin [1] is reported as 13.6 ± 3.06 G/DL, the Ionic phosphate [1] is reported as 8.3 ± 0.82 mg/dL and the Lymphocytes [1] is reported as 6.80 ± 2.42 × 10^3 /mm^3. For the same substance, the Mean corpuscle [1] was 65.0 ± 2.70 fL, the Mean corpuscle hemoglobin [1] was 18.4 ± 2.41 pg and the Monocytes [1] was 0.05 ± 0.08 ×10^3 /mm^3. For the same substance, the Normal blood cells [1] was 0.0 ± 0.00 /100 white blood cells, the Platelet count [1] was 924 ± 395.20 × 10^3 /mm^3 and the Potassium [1] was 4.5 ± 0.16 mmol/L. For the same substance, the Red blood cell [1] was 7.32 ± 1.00 × 10^6 /mm^3, the Segmented neutrophils [1] was 0.49 ± 0.22 × 10^3 /mm^3 and the Sodium [1] was 141.0 ± 1.10 mmol/L. For the same substance, the Total bilirubin [1] was 0.3 ± 0.05 mg/dL, the Total proteins [1] was 6.5 ± 0.38 G/dL and the “Mortality (died/total)” value ([2]; 1 day) was 0/6. The Kidney size [2, 4] was “normal”, the Kidney weight [2, 4] was “normal” and the BUN ([2]; 1 day, BCD 0.75%, HPBCD 1.5 and 3%, Table III) was 14.8 mg/dL. The “Mortality (died/total)” value ([2]; 3 day) was 0/6, the Kidney size [2, 5] was “normal” and the Kidney weight [2, 5] was “normal”. The BUN ([2]; 3 day, HPBCD 1.5 and 3%, Table III) was 19.8 mg/dL, the BUN ([2]; HPBCD 1.5%, 1d, n = 6) was 14.8 mg/dL and the “Final body weight Wt (f)” value ([2]; HPBCD 1.5%, 1d, n = 6) was 210 g. The “Initial body weight Wt (i)” value ([2]; HPBCD 1.5%, 1d, n = 6) was 213 g, the “Left kidney weight (Lt kd)” value ([2]; HPBCD 1.5%, 1d, n = 6) was 867 mg and the “Left kidney/body weight (Lt kd/wt)” value ([2]; HPBCD 1.5%, 1d, n = 6) was 4.11 mg/g. The Mortality ([2]; HPBCD 1.5%, 1d, n = 6) was 0%, the “Right kidney weight (Rt kd)” value ([2]; HPBCD 1.5%, 1d, n = 6) was 860 mg and the “Right kidney/body weight (Rt kd/wt)” value ([2]; HPBCD 1.5%, 1d, n = 6) was 4.08 mg/g. For the same substance, the BUN ([2]; HPBCD 1.5%, 3d, n = 6) was 19.8 mg/dL, the “Final body weight Wt (f)” value ([2]; HPBCD 1.5%, 3d, n = 6) was 280 g and the “Initial body weight Wt (i)” value ([2]; HPBCD 1.5%, 3d, n = 6) was 296 g. For the same substance, the “Left kidney weight (Lt kd)” value ([2]; HPBCD 1.5%, 3d, n = 6) was 1027 mg, the “Left kidney/body weight (Lt kd/wt)” value ([2]; HPBCD 1.5%, 3d, n = 6) was 3.68 mg/g and the Mortality ([2]; HPBCD 1.5%, 3d, n = 6) was 0%. For the same substance, the “Right kidney weight (Rt kd)” value ([2]; HPBCD 1.5%, 3d, n = 6) was 1009 mg, the “Right kidney/body weight (Rt kd/wt)” value ([2]; HPBCD 1.5%, 3d, n = 6) was 3.61 mg/g and the BUN ([2]; HPBCD 3%, 1d, n = 6) was 15.7 mg/dL. For the same substance, the “Final body weight Wt (f)” value ([2]; HPBCD 3%, 1d, n = 6) was 301 g, the “Initial body weight Wt (i)” value ([2]; HPBCD 3%, 1d, n = 6) was 322 g and the “Left kidney weight (Lt kd)” value ([2]; HPBCD 3%, 1d, n = 6) was 1034 mg. The “Left kidney/body weight (Lt kd/wt)” value ([2]; HPBCD 3%, 1d, n = 6) was 3.43 mg/g, the Mortality ([2]; HPBCD 3%, 1d, n = 6) was 0% and the “Right kidney weight (Rt kd)” value ([2]; HPBCD 3%, 1d, n = 6) was 1054 mg. For the same substance, the “Right kidney/body weight (Rt kd/wt)” value ([2]; HPBCD 3%, 1d, n = 6) was 3.49 mg/g, the BUN ([2]; HPBCD 3%, 3d, n = 6) was 19.9 mg/dL and the “Final body weight Wt (f)” value ([2]; HPBCD 3%, 3d, n = 6) was 267 g. For the same substance, the “Initial body weight Wt (i)” value ([2]; HPBCD 3%, 3d, n = 6) was 275 g, the “Left kidney weight (Lt kd)” value ([2]; HPBCD 3%, 3d, n = 6) was 995 mg and the “Left kidney/body weight (Lt kd/wt)” value ([2]; HPBCD 3%, 3d, n = 6) was 3.72 mg/g. For the same substance, the Mortality ([2]; HPBCD 3%, 3d, n = 6) was 0%, the “Right kidney weight (Rt kd)” value ([2]; HPBCD 3%, 3d, n = 6) was 1009 mg and the “Right kidney/body weight (Rt kd/wt)” value ([2]; HPBCD 3%, 3d, n = 6) was 3.78 mg/g. The BUN ([2]; HPBCD 6%, 1d, n = 6) was 14.5 mg/dL, the “Final body weight Wt (f)” value ([2]; HPBCD 6%, 1d, n = 6) was 227 g and the “Initial body weight Wt (i)” value ([2]; HPBCD 6%, 1d, n = 6) was 240 g. The “Left kidney weight (Lt kd)” value ([2]; HPBCD 6%, 1d, n = 6) was 1076 mg, the “Left kidney/body weight (Lt kd/wt)” value ([2]; HPBCD 6%, 1d, n = 6) was 4.73 mg/g and the Mortality ([2]; HPBCD 6%, 1d, n = 6) was 0%. The “Right kidney weight (Rt kd)” value ([2]; HPBCD 6%, 1d, n = 6) was 1066 mg, the “Right kidney/body weight (Rt kd/wt)” value ([2]; HPBCD 6%, 1d, n = 6) was 4.70 mg/g and the Rats died ([2]; HPBCD Groups, 1 and 3 day, in words) was “None of the rats”. The Changes in behavior [3] was “No changes in behavior were observed”, the “Changes in daily food consumption” value [3] was “No weight changes were observed (TABLE XIII) or changes in daily food consumption” and the “Gross pathological changes and histopathological findings” value [3] was “No gross pathological changes and no histopathological findings were observed”. For the same substance, the “Hematology and clinical chemistry values” [3] was “No differences were seen”, the Weight changes [3] was “No weight changes were observed” and the Basophils ([3]; 200 mg/kg) was 0.00 × 10^3 /mm^3. The Immature neutrophils ([3]; 200 mg/kg) was 0.00 × 10^3 mm^3 and the Normal blood cells ([3]; 200 mg/kg) was 0.00 /100 white blood cells.
